Measured values as given in the supplement of paper PMC10307832.

Tests used:
Assay in all cases: relative viability (nuclei count vs DMSO), 5 days (fraction); higher = more cells survive
R406 + Tozasertib = compound: COc1cc(Nc2ncc(F)c(Nc3ccc4c(n3)NC(=O)C(C)(C)O4)n2)cc(OC)c1OC [R406] + Cc1cc(Nc2cc(N3CCN(C)CC3)nc(Sc3ccc(NC(=O)C4CC4)cc3)n2)n[nH]1 [Tozasertib] (partner 0.1 µM)
Procedure, shortened: (§1)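 Dosing by pin tool came one day after lung cancer cell lines were seeded in 1536-well plates, using either one drug or a fixed anchor-drug dose plus five library-drug doses (not always all listed) in √10 steps. After 5 days, nuclei were counted on 4× images. Relative viability is treated-well nuclei count divided by vehicle-well nuclei count, and values are medians of duplicate plates.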

Daporinad + Crizotinib = compound: O=C(/C=C/c1cccnc1)NCCCCC1CCN(C(=O)c2ccccc2)CC1 [Daporinad] + C[C@@H](Oc1cc(-c2cnn(C3CCNCC3)c2)cnc1N)c1c(Cl)ccc(F)c1Cl [Crizotinib] (partner 1 µM)
Procedure, shortened: as §1

R406 + Foretinib = compound: COc1cc(Nc2ncc(F)c(Nc3ccc4c(n3)NC(=O)C(C)(C)O4)n2)cc(OC)c1OC [R406] + COc1cc2c(Oc3ccc(NC(=O)C4(C(=O)Nc5ccc(F)cc5)CC4)cc3F)ccnc2cc1OCCCN1CCOCC1 [Foretinib] (partner 0.25 µM)
Procedure, shortened: as §1

Daporinad + Bortezomib = compound: O=C(/C=C/c1cccnc1)NCCCCC1CCN(C(=O)c2ccccc2)CC1 [Daporinad] + CC(C)C[C@H](NC(=O)[C@H](Cc1ccccc1)NC(=O)c1cnccn1)B(O)O [Bortezomib] (partner 0.002 µM)
Procedure, shortened: as §1

UMC-11
relative viability (R406 + Tozasertib; first compound 0.08 µM): 0.203
relative viability (R406 + Tozasertib; first compound 0.253 µM): 0.207
relative viability (R406 + Tozasertib; first compound 0.8 µM): 0.205
relative viability (R406 + Tozasertib; first compound 2.53 µM): 0.25
relative viability (R406 + Tozasertib; first compound 8 µM): 0.185
relative viability (Daporinad + Crizotinib; first compound 0.0005 µM): 0.672
relative viability (Daporinad + Crizotinib; first compound 0.001581 µM): 0.641
relative viability (Daporinad + Crizotinib; first compound 0.005 µM): 0.852
relative viability (Daporinad + Crizotinib; first compound 0.01581 µM): 0.656
relative viability (R406 + Foretinib; first compound 0.08 µM): 1.11
relative viability (R406 + Foretinib; first compound 0.253 µM): 1.09
relative viability (R406 + Foretinib; first compound 0.8 µM): 0.987
relative viability (R406 + Foretinib; first compound 2.53 µM): 0.789
relative viability (R406 + Foretinib; first compound 8 µM): 0.499
relative viability (Daporinad + Bortezomib; first compound 0.0005 µM): 0.668
relative viability (Daporinad + Bortezomib; first compound 0.001581 µM): 0.373
relative viability (Daporinad + Bortezomib; first compound 0.005 µM): 0.678
relative viability (Daporinad + Bortezomib; first compound 0.01581 µM): 0.827
